Measurements taken from patent US6443945B1, “Laser assisted pharmaceutical delivery and fluid removal” (Transmedica International, Inc., priority 1993, dated 2002).

Tests used:
[1] = Permeation of radiolabelled corticosterone or DNA through laser-irradiated human skin in diffusion cells; assay type: in vitro ADME; conditions: 2 mm spot, donor removed after 15 minutes
Protocol: Pieces of human skin were placed in diffusion cells and irradiated with a single pulse of radiant energy produced by an Er:YAG laser. The spot size was 2 mm and the energy of the pulse was measured with a calibrated energy meter. After irradiation, the diffusion cells were placed in a 37 degrees Celsius heating block. Phosphate buffered saline was added to the receptor chamber below the skin and a small stir bar was inserted in the receptor chamber to keep the fluid continually mixed. Control skin was left unirradiated. Small volumes of radiolabelled compounds (either corticosterone or DNA) were then added to the donor chamber and left for 15 minutes before being removed (in the case of corticosterone) or were left for the entire duration of the experiment (in the case of the DNA). Samples were then taken from the receptor chamber at various times after application of the test compound and measured in a scintillation or gamma counter.

[2] = In vivo blanching assay (chromameter skin redness) on laser-irradiated forearm spots; design: species or system human
Text: In the case of the blanching assay, baseline skin color (redness) measurements were then taken of each spot using a Minolta CR-300 Chromameter (Minolta Inc., NJ). The Er:YAG laser was then used to ablate six 2 mm spots on one forearm, at energies of 40, 80 and 120 mJ. A spot (negative calorimeter control) directly adjacent to the laser irradiated spots remained untouched. Subsequently, a thin film of 1% hydrocortisone ointment was applied to six of the lased spots on the treatment arm. One untouched spot on the contralateral arm was administered a thin layer of Diprolene (β-methasone), which is a strong steroid that can permeate the intact stratum corneum in an amount sufficient to cause measurable skin blanching. An occlusive patch, consisting of simple plastic wrap, was fixed with gauze and dermatological tape over all sites on both arms and left in place for two hours, after which the administered steroids were gently removed with cotton swabs. […] Finally, the skin was clinically assessed for evidence of irritation at the 26 hour evaluation.

[3] = In vitro permeation study of tritiated water through lased human skin; assay type: in vitro ADME; conditions: 50 mJ (1.6 J/cm^2) to 1250 mJ (40 J/cm^2); increase at low fluences up to about 5 J/cm^2, then more-or-less constant
Text: Histology studies on rat and human skin, irradiated either in vivo or in vitro, show little or no evidence of ablation when Er:YAG laser pulse energies less than about 100-200 mJ are used. (See, e.g., FIG. 25).

[4] = Topical alprostadil patch on laser-perforated penis skin; assay type: in vivo, human; conditions: three 2 mm spots, 5 J/cm^2; patch held 45 minutes
Text: The duration of the pulse was approximately 300 μs. The spot size was approximately 2 mm, with an energy fluence of 5 J/cm^2. Single pulses were used. Three 2 mm diameter spots were created on a flaccid penis. Subsequent to ablation a pharmaceutical preparation of alprostadil (Caverject from Pharmacia & Upjohn, Kalamazoo, Mich.) was applied to a small patch consisting of tissue paper. The patch was applied to the multiple perforated areas of the skin on the then flaccid penis and held there with adhesive tape for 45 minutes. After approximately 35 minutes, the patient obtained an erection that was sustained for more than 1 hour.

[5] = Permeation of radiolabelled drugs through Er:YAG laser-irradiated human skin in Franz diffusion cells; assay type: in vitro ADME
Text: The output of the Er:YAG laser was passed through an aperture to define it's diameter as 2 mm. Human skin, purchased from a skin bank, was positioned in Franz diffusion cells. The receptor chamber of the cell was filled with 0.9% buffered saline. A single pulse, of measured energy, was used to irradiate the skin in separate diffusion cells. Control skin was left unirradiated. […] In the case of γ-interferon, a 285 mJ pulse was used, and multiple samples were irradiated. […] In the case of cortisone, either 77 mJ or 117 mJ was used. After irradiation, a stirring magnet was place in the receptor chamber of the diffusion cells and the cells were placed in a heating block held at 37° C. […] The donor was left on the skin for the duration of the experiment. At various times post-drug-application, samples were taken from the receptor chamber and the amount of drug present was assayed with either a gamma-counter, or a liquid scintillation counter.

In the case of `C[C@]12C[C@H](O)[C@H]3[C@@H](CCC4=CC(=O)CC[C@@]43C)[C@@H]1CC[C@@H]2C(=O)CO` [corticosterone], the “permeation through irradiated skin versus unirradiated controls” value ([1]; 77 mJ/pulse (sub-ablative)) is reported as “enhanced permeation” and the “permeation through irradiated skin versus unirradiated controls” value ([1]; 117 mJ pulse) is reported as “enhanced permeation”.

For `CCN(CC)CC(=O)Nc1c(C)cccc1C` [Lidocaine, lidocaine], the “pain on insertion of 26G-0.5 needle into lased site” value (30% liquid lidocaine solution applied topically for two minutes after 60 mJ pulse) was “no observable pain” and the “pain on full insertion of 22G-1 needle into lased site” value (30% liquid lidocaine solution, 6-minute anesthetic treatment after 60 mJ pulse) was “no observable pain”.

For `C[C@]12CCC(=O)C=C1CC[C@@H]1[C@@H]2[C@@H](O)C[C@@]2(C)[C@H]1CC[C@]2(O)C(=O)CO` [hydrocortisone], the “erythema (reddening) of skin, chromameter measurements” value ([2]; 1% hydrocortisone ointment on spots lased at 40, 80, 120 mJ, occluded two hours, 2-26 hours post-irradiation) was “reddening was less than that seen in the control spots” and the “clinical assessment for irritation” value ([2]; 26 hour evaluation) was “no problems were seen”.

For `[3H]O[3H]` [tritiated water], the “permeation through lased human skin” value [3] was “increase in permeation”.

With `CCCCC[C@H](O)/C=C/[C@H]1[C@H](O)CC(=O)[C@@H]1CCCCCCC(=O)O` [alprostadil] the duration of erection [4] was “more than 1 hour” and the time to erection [4] was “approximately 35 minutes”.

B1: γ-Interferon: radiolabelled gamma-interferon diluted in buffered saline (protein, UniProt P01579 24-161, looked up)
Interferon gamma: QDPYVKEAENLKKYFNAGHSDVADNGTLFLGILKNWKEESDRKIMQSQIVSFYFKLFKNFKDDQSIQKSVETIKEDMNVKFFNSNKKKRDDFEKLTNYSVTDLNVQRKAIHELIQVMAELSPAAKTGKRKRSQMLFRG
modifications: radiolabel
notes: radiolabelled gamma-interferon diluted in buffered saline
In the case of B1, the “Permeability Constant, kp” value [5] is reported as 9.74 +/− 2.05 ×10^−3 cm/hr.
